Data: US4232155A, “Purine compounds” (Bristol-Myers Company, priority 1979, dated 1980)
Values after ≈ are worked out from the molar mass of the structure shown.

Experiments:
guinea pig = experiment: In vivo bronchodilator and hypotensive activity (intratracheal pressure and arterial blood pressure in anesthetized guinea pig); settings: intravenous; for ABP ED20 (dose which reduces arterial blood pressure by 20%): hypotensive activity; for ED50: Cavia porcellus, bronchodilator activity, read-out: ITP ED50 (dose resulting in a 50% decrease in intratracheal pressure); for Ratio ABP/ITP (hypotensive ED20/bronchodilating ED50): separation of bronchodilator from hypotensive effect
Protocol: The trachea of anesthetized guinea pig was cannulated and the ITP recorded on a polygraph under artificial ventilation. Arterial blood pressure (ABP; reflecting hypotensive activity) was also measured during the experiment. Either intravenous or intraduodenal routes of administration are used. […] The ratio of hypotensive ED20 /brochodilating ED50 reflects an assessment of the separation of desirable brochodilator activity from undesirable cardiovascular (hypotensive) effect in the compounds.

[1] = tested on: Tracheal chains of guinea pig; experiment: In vitro bronchodilator activity, relaxation of tracheal chains (Magnus method); settings: Cavia porcellus, relative to 0.1 mcg./ml. isoproterenol, read-out: EC50 (concentration producing a relaxation which is 50% of the maximum response to 0.1 mcg./ml. of isoproterenol)
Protocol: Tracheal chains of guinea pig were prepared by the method of A. Akcasu, Arch. Int. […] The response to each test compound was recorded by the Magnus method and expressed as a percentage of the maximum response obtained with 0.1 mcg./ml. of isoproterenol prior to each experiment.

SMILES	ABP ED20 (dose which reduces arterial blood pressure by 20%) (guinea pig)	EC50 [1]	ED50 (guinea pig)	Ratio ABP/ITP (hypotensive ED20/bronchodilating ED50) (guinea pig)
Cn1c(=O)c2[nH]cnc2n(C)c1=O [Aminophylline, reference compound]	1.4 mg/kg			
CCCNc1nc(N)c2ncn(C3C=CCCC3)c2n1 (centres unmarked) [Example 1, 9-(2-Cyclohexenyl)-2-n-propylamino-9H-adenine]	> 3 mg/kg	0.47 µg/mL (≈ 1.73 µM)	1.4 mg/kg	> 2.1
Nc1nc(NC2CCCCC2)nc2c1ncn2C1C=CCCC1 (centres unmarked) [Example 2, 9-(2-Cyclohexenyl)-2-cyclohexylamino-9H-adenine]	2.4 mg/kg	0.24 µg/mL (≈ 0.768 µM)	> 3 mg/kg	< 0.8
CCCNc1nc(N)c2ncn(C3CCCCC3)c2n1 [Example 3, 9-Cyclohexyl-2-n-propylamino-9H-adenine]	2.8 mg/kg	0.75 µg/mL (≈ 2.73 µM)	0.49 mg/kg	5.7
Nc1nc(NC2CCCCC2)nc2c1ncn2C1CCCCC1 [Example 4, 9-Cyclohexyl-2-cyclohexylamino-9H-adenine]	> 3 mg/kg	0.21 µg/mL (≈ 0.668 µM)	1.5 mg/kg	> 2
